As a reminder, the IC50 is the concentration needed to halve the response being measured.

The structures appear in SMILES notation. Like-named read-outs stand apart in the source and are kept apart here.

These results are taken from patent US20260317320A1, “C5AR1 ANTAGONISTS AND USES THEREOF” (Vanqua Bio, Inc., priority 2022, published 2026).

In assay [1] the target is T1, complement C5a receptor 1 (C5aR1) (Homo sapiens, UniProt P21730).
T1 construct: β-galactosidase fragment (PathHunter enzyme complementation); host or cells: CHO-K1 (PathHunter CHO-K1 C5aR1 β-arrestin cell line)
T1 sequence (P21730 1-350): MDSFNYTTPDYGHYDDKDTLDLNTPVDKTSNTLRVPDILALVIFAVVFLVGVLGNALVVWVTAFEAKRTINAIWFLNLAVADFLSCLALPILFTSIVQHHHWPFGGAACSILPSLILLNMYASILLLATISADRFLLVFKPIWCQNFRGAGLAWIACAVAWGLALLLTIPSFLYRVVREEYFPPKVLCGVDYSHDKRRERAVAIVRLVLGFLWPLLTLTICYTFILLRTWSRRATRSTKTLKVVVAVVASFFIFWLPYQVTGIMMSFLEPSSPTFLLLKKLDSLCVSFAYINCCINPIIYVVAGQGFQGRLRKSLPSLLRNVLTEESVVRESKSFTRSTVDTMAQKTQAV
Nature of the assay: β-arrestin recruitment via C5aR1 activation in live CHO-K1 cells (PathHunter), antagonist mode. The settings on record: antagonist mode; recombinant hC5a (EC90) as competing natural agonist; live CHO-K1 cells; read-out: [Antagonist] B-arrestin2 recruitment: Average IC50. The assay is classed as cell-based. An outline of the steps: (§1)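 Live CHO-K1 cells carry two galactosidase enzyme fragments, one fused to β-arrestin and one to C5aR1, so that β-arrestin recruitment restores enzyme activity. Agonist mode tests compounds alone. Antagonist mode tests them against recombinant hC5a at EC90, and IC50 values are reported in binned ranges.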
(Arrestin recruitment assays detect the binding of arrestin to an activated receptor.)

Assay [2] concerns the target T1, complement C5a receptor 1 (C5aR1). Kind of assay: β-arrestin recruitment via C5aR1 activation in live CHO-K1 cells (PathHunter), agonist mode. The class given is cell-based. An outline of the steps:
as §1

For `Cc1cnc2cc([C@H]3CC[C@@H](c4c(C)ccnc4F)CC3)c(=O)n(Cc3nccnc3C(F)F)c2n1` [146A, 5-((3-(Difluoromethyl)pyrazin-2-yl)methyl)-7-((1s,4s)-4-(2-fluoro-4-methylpyridin-3-yl)cyclohexyl)-3-methylpyrido[2,3-b]pyrazin-6(5H)-one], in assay [1], the IC50 was 5000 to 100000 nM. Besides, the “[Agonist] B-arrestin2 recruitment: Average EC50 (nM)” value (“[Agonist] B-arrestin2 recruitment” below) in assay [2] (at 10 μM) is listed as “Non-Active at 10 μM”.
Taken in the same sequence, the figures for `CCc1cnc2c(cc([C@H]3CC[C@H](c4c(C)cccc4F)CC3)c(=O)n2Cc2ncccc2C(F)(F)F)n1` [compound 211, 2-Ethyl-7-((1r,4r)-4-(2-fluoro-6-methylphenyl)cyclohexyl)-5-((3-(trifluoromethyl)pyridin-2-yl)methyl)pyrido[2,3-b]pyrazin-6(5H)-one] were less than 500 nM and “Non-Active at 10 μM”.
In the case of `Cc1cc(F)ncc1N1CCC(c2cc3nccnc3n(Cc3ccccc3C(F)(F)F)c2=O)CC1` [compound 32, 7-(1-(6-Fluoro-4-methylpyridin-3-yl)piperidin-4-yl)-5-(2-(trifluoromethyl)benzyl)pyrido-[2,3-b]pyrazin-6(5H)-one], in assay [1], the concentration for half-maximal inhibition (IC50) is less than 500 nM. Besides, the “[Agonist] B-arrestin2 recruitment” value in assay [2] is reported as “Non-Active”.
Taken in the same sequence, the figures for `COc1cnc2cc(C3CCN(c4c(C)cccc4F)CC3)c(=O)n(Cc3ncccc3C(F)(F)F)c2n1` [compound 54, 7-(1-(2-Fluoro-6-methylphenyl)piperidin-4-yl)-3-methoxy-5-((3-(trifluoromethyl)pyridin-2-yl)methyl)pyrido[2,3-b]pyrazin-6(5H)-one] were more than 100000 nM and “Non-Active”.
Regarding `Cc1cnc2cc(C3CCN(c4nccnc4C)CC3)c(=O)n(Cc3ncccc3C(F)(F)F)c2n1` [compound 151, 3-Methyl-7-(1-(3-methylpyrazin-2-yl)piperidin-4-yl)-5-((3-(trifluoromethyl)pyridin-2-yl)methyl)pyrido[2,3-b]pyrazin-6(5H)-one], the IC50 in assay [1] was 500 to 5000 nM. The “[Agonist] B-arrestin2 recruitment” value in assay [2] (at 10 μM) is on record as “Non-Active at 10 μM”.
As to `Cc1cccc(F)c1N1CCC(c2nc3ccccc3n(Cc3nccnc3C(F)(F)F)c2=O)CC1` [compound 136, 3-(1-(2-Fluoro-6-methylphenyl)piperidin-4-yl)-1-((3-(trifluoromethyl)pyrazin-2-yl)methyl)quinoxalin-2(1H)-one], in assay [1], the half-maximal inhibitory concentration (IC50) is more than 100000 nM. In addition, in assay [2], the “[Agonist] B-arrestin2 recruitment” value is listed as “Non-Active”.
Consider `Cc1cccc(F)c1C1CCN(c2cc3nccnc3n(Cc3nccnc3C(F)(F)F)c2=O)CC1` [compound 89, 7-(4-(2-Fluoro-6-methylphenyl)piperidin-1-yl)-5-((3-(trifluoromethyl)pyrazin-2-yl)methyl) pyrido[2,3-b]pyrazin-6(5H)-one], for which the half-inhibitory concentration (IC50) in assay [1] is 5000 to 100000 nM. The “[Agonist] B-arrestin2 recruitment” value in assay [2] was “Non-Active”.
For the compound `COc1nccc(C)c1[C@H]1CC[C@H](c2cc3ccc(C)nc3n(Cc3ncccc3C(F)(F)F)c2=O)CC1` [compound 234, 3-((1r,4r)-4-(2-Methoxy-4-methylpyridin-3-yl)cyclohexyl)-7-methyl-1-((3-(trifluoromethyl)pyridin-2-yl)methyl)-1,8-naphthyridin-2(1H)-one], the IC50 in assay [1] was less than 500 nM. In assay [2] (at 10 μM), the “[Agonist] B-arrestin2 recruitment” value is “Non-Active at 10 μM”.
`Cc1cnc2c(C)c(C3CCN(c4c(C)cccc4F)CC3)c(=O)n(Cc3nccnc3C(F)(F)F)c2n1` [compound 73, 7-(1-(2-Fluoro-6-methylphenyl)piperidin-4-yl)-3,8-dimethyl-5-((3-(trifluoromethyl)pyrazin-2-yl)methyl)pyrido[2,3-b]pyrazin-6(5H)-one]: the IC50 in assay [1] was 500 to 5000 nM. Moreover, the “[Agonist] B-arrestin2 recruitment” value in assay [2] is recorded as “Non-Active”.
Taken in the same sequence, the figures for `Cc1cccc(F)c1N1CCC(c2c(C)c3nccnc3n(Cc3nccnc3C(F)(F)F)c2=O)CC1` [compound 22, 7-(1-(2-Fluoro-6-methylphenyl)piperidin-4-yl)-8-methyl-5-((3-(trifluoromethyl)pyrazin-2-yl)methyl)pyrido[2,3-b]pyrazin-6(5H)-one] were 500 to 5000 nM and “Non-Active”.
Taken in the same sequence, the figures for `Cc1cnc2cc([C@H]3CC[C@H](c4c(C)cccc4F)C3)c(=O)n(Cc3ncccc3OC(F)F)c2n1` [175C, 5-((3-(Difluoromethoxy)pyridin-2-yl)methyl)-7-((1S,3S)-3-(2-fluoro-6-methylphenyl)cyclopentyl)-3-methylpyrido[2,3-b]pyrazin-6(5H)-one] were less than 500 nM and “Non-Active”.
On to `Cc1cnc2cc([C@H]3CC[C@H](c4c(C)cccc4F)CC3)c(=O)n(Cc3ncccc3C3CC3)c2n1` [compound 220, 5-((3-Cyclopropylpyridin-2-yl)methyl)-7-((1r,4r)-4-(2-fluoro-6-methylphenyl)cyclohexyl)-3-methylpyrido[2,3-b]pyrazin-6(5H)-one], for which the half-maximal inhibitory concentration (IC50) in assay [1] is less than 500 nM. The “[Agonist] B-arrestin2 recruitment” value in assay [2] (at 10 μM) was “Non-Active at 10 μM”.
In the case of `COc1ccnc(F)c1N1CCC(c2cc3nccnc3n(Cc3ccccc3C(F)(F)F)c2=O)CC1` [compound 33, 7-(1-(2-Fluoro-4-methoxypyridin-3-yl)piperidin-4-yl)-5-(2-(trifluoromethyl)benzyl)pyrido[2,3-b]pyrazin-6(5H)-one], the IC50 in assay [1] was 500 to 5000 nM. The “[Agonist] B-arrestin2 recruitment” value in assay [2] is given as “Non-Active”.
Take `Cc1cccc(F)c1N1CCC(c2cc3nccnc3n(Cc3ncccc3OC(F)(F)F)c2=O)CC1` [compound 87, 7-(1-(2-Fluoro-6-methylphenyl)piperidin-4-yl)-5-((3-(trifluoromethoxy)pyridin-2-yl)methyl)pyrido[2,3-b]pyrazin-6(5H)-one]: the half-maximal inhibitory concentration (IC50) in assay [1] is less than 500 nM. Also, the “[Agonist] B-arrestin2 recruitment” value in assay [2] was “Non-Active”.
Taken in the same sequence, the figures for `O=c1c(C2CCN(c3cccnc3F)CC2)cc2nccnc2n1Cc1ncccc1C(F)(F)F` [compound 72, 7-(1-(2-Fluoropyridin-3-yl)piperidin-4-yl)-5-((3-(trifluoromethyl)pyridin-2-yl)methyl) pyrido[2,3-b]pyrazin-6(5H)-one] were more than 100000 nM and “Non-Active”.
In the case of `Cc1cccc(F)c1[C@H]1CC[C@H](c2cc3ncc(C(C)(F)F)nc3n(Cc3ncccc3C(F)(F)F)c2=O)CC1` [compound 267, 3-(1,1-Difluoroethyl)-7-[(1r,4r)-4-(2-fluoro-6-tolyl)cyclohexyl]-5-{[3-(trifluoromethyl)-2-pyridyl]methyl}-1,4,5-triaza-6(5H)-naphthalenone], the IC50 in assay [1] is less than 500 nM. Also, the “[Agonist] B-arrestin2 recruitment” value in assay [2] is “Non-Active”.
On to `COc1nccnc1Cn1c(=O)c([C@H]2CC[C@H](c3c(C)cccc3F)CC2)cc2ncc(C)nc21` [compound 173, 7-((1r,4r)-4-(2-Fluoro-6-methylphenyl)cyclohexyl)-5-((3-methoxypyrazin-2-yl)methyl)-3-methylpyrido[2,3-b]pyrazin-6(5H)-one], for which the IC50 in assay [1] was less than 500 nM. Further, the “[Agonist] B-arrestin2 recruitment” value in assay [2] (at 10 μM) is recorded as “Non-Active at 10 μM”.
Consider `O=c1c(C2CCN(c3cnccc3C(F)(F)F)CC2)cc2nccnc2n1Cc1ncccc1C(F)(F)F` [compound 60, 5-((3-(trifluoromethyl)pyridin-2-yl)methyl)-7-(1-(4-(trifluoromethyl)pyridin-3-yl)piperidin-4-yl)pyrido[2,3-b]pyrazin-6(5H)-one], for which the IC50 in assay [1] is less than 500 nM. Further, the “[Agonist] B-arrestin2 recruitment” value in assay [2] is “Non-Active”.
As to `Cc1cnc2cc([C@H]3CC[C@H](c4nccs4)CC3)c(=O)n(Cc3ncccc3C(F)(F)F)c2n1` [compound 158, 3-Methyl-7-((1r,4r)-4-(thiazol-2-yl)cyclohexyl)-5-((3-(trifluoromethyl)pyridin-2-yl)methyl)pyrido[2,3-b]pyrazin-6(5H)-one], the concentration for half-maximal inhibition (IC50) in assay [1] was 500 to 5000 nM. The “[Agonist] B-arrestin2 recruitment” value in assay [2] (at 10 μM) was “Non-Active at 10 μM”.
On to `Cc1cnc2cc([C@H]3CC[C@H](c4cnsc4C)CC3)c(=O)n(Cc3ncccc3C(F)(F)F)c2n1` [compound 249, 3-Methyl-7-((1r,4r)-4-(5-methylisothiazol-4-yl)cyclohexyl)-5-((3-(trifluoromethyl)pyridin-2-yl)methyl)pyrido[2,3-b]pyrazin-6(5H)-one], for which, in assay [1], the half-maximal inhibitory concentration (IC50) was less than 500 nM. The “[Agonist] B-arrestin2 recruitment” value in assay [2] (at 10 μM) was “Non-Active at 10 μM”.
For `Cc1ccc2cc([C@H]3CC[C@H](c4c(C)cccc4F)CC3)c(=O)n(Cc3ncccc3OC(F)F)c2n1` [compound 195, 1-((3-(Difluoromethoxy)pyridin-2-yl)methyl)-3-((1r,4r)-4-(2-fluoro-6-methylphenyl)cyclohexyl)-7-methyl-1,8-naphthyridin-2(1H)-one], in assay [1], the IC50 is less than 500 nM. For the same compound, in assay [2], the “[Agonist] B-arrestin2 recruitment” value is “Non-Active”.
In the case of `Cc1c(C2CCN(c3cccnc3C(F)(F)F)CC2)c(=O)n(Cc2ccccc2F)c2nccnc12` [compound 11, 5-(2-Fluorobenzyl)-8-methyl-7-(1-(2-(trifluoromethyl)pyridin-3-yl)piperidin-4-yl)pyrido[2,3-b]pyrazin-6(5H)-one], the IC50 in assay [1] was more than 100000 nM. For the same compound, in assay [2], the “[Agonist] B-arrestin2 recruitment” value is “Non-Active”.
